In US10854312B2, “Selective peptide antagonists” (BIONIZ, LLC, priority 2013, dated 2020):
No end group written: not given here.

Key:
IL-17A and IL-17F = assay: Inhibition of IL-17 family members; settings: no test described
γc-cytokines = assay: Target cytokine spectrum within the γc-family; type: cell-based
IL-6 = assay: T1165 cell proliferation assay, IL-6; type: cell-based
Method: CTLL2 cells are cultured in the presence of 5 u/ml and 10 u/ml of IL-2 (FIG. 10A) and 2.5 ng/ml and 5 ng/ml of IL-15 (FIG. 10B) in the presence of increasing concentration of BNZ132-PEG-130. T1165 cells are cultured with 0.1 ng/ml of IL-6 (FIG. 10C) and increasing concentration of BNZ132-PEG-130. […] BNZ132-1 was conjugated to BNZ130 via a PEG24 linker. The name of the bi-antagonist peptide is BNZ132-PEG-130. FIG. 10A and FIG. 10B show the results of BNZ132-PEG-130 in IL-2 (FIG. 10A) and IL-15 (FIG. 10B) CTLL2 proliferation assay. Cells were washed and incubated with IL-2 (5 and 10 units/ml), IL-15 (2.5 and 5 ng/ml) in the presence or absence of BNZ132-PEG-130 (0.1-10 μM). Cells were then pulsed with the WST-1 reagent to measure the proliferative response for the next 6 hr (OD450). […] Cells are washed and incubated with IL-6 (0.1 ng/ml) in the presence or absence of BNZ132-PEG-130 (0.1-10 μM) for 24 hours. Cells were then pulsed with WST-1 reagent for the following 6 hr to measure OD450. The BNZ130-1 polypeptide as presented in Table 2, above, is tested for its activity in inhibiting IL-6 activity. T1165 cells that are dependent on human or mouse IL-6 for their growth in vitro are selected. The cell line is cultured in the absence of IL-6, In the presence of IL-6, in the presence of BNZ130-1, and in the presence of IL-6 and BNZ130-1.

BNZ17-1: inhibitory polypeptide SEQ ID NO: 144 of IL-17A and IL-17F target region fragments (Table 7) (YSRSTSPWRYHRDRDPNRYPSDLYHAKC)
specific inhibition within the IL-17 family (IL-17A and IL-17F): specifically inhibits IL-17A and IL-17F to the exclusion of the remaining family members

BNZ gamma: polypeptide SEQ ID NO: 130 (Table 6) of IL-15, IL-2 and IL-9 D-helix fragments; probably the same as BNZ132-1 (IKEFLQSFIHIVQSIINT)
γc-cytokines not inhibited (γc-cytokines; IL-4, IL-7 and IL-21): does not exhibit inhibitory activity | γc-cytokines inhibited (γc-cytokines; summary statements, BNZ132-2 and -3 data not shown): inhibitory activity against all of IL-2, IL-15 and IL-9

LTHLIERSSRAVLQSLLRASRQ [BNZ130-1]
antagonistic activity on T1165 proliferation in the presence of IL-6 (IL-6; Example 11, T1165 cells dependent on IL-6): dose-dependent antagonistic activity | effect on T1165 cell survival (IL-6; Example 11, with or without IL-6): does not affect T1165 survival
